Measured values from PubChem BioAssay (NCI).
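48-hour exposure; five concentrations; linearly interpolated endpoints. At the TGI there is no net growth.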

What was measured:
Assay in all cases: NCI tumour cell line growth inhibition, 48 h
MDA-MB-435 = test system: MDA-MB-435
MDA-MB-231 breast = test system: MDA-MB-231 breast
NCI-H226 lung = test system: NCI-H226 lung
SNB-19 CNS = test system: SNB-19 CNS
SK-OV-3 ovarian = test system: SK-OV-3 ovarian
MCF7 breast = test system: MCF7 breast
BT-549 breast = test system: BT-549 breast
SW-620 colon = test system: SW-620 colon
SF-295 CNS = test system: SF-295 CNS
HCT-15 colon = test system: HCT-15 colon
COLO 205 colon = test system: COLO 205 colon
OVCAR-3 ovarian = test system: OVCAR-3 ovarian

Row | SMILES | TGI (MDA-MB-435) [µM] | TGI (MDA-MB-231 breast) [µM] | TGI (NCI-H226 lung) [µM] | TGI (SNB-19 CNS) [µM] | TGI (SK-OV-3 ovarian) [µM] | TGI (MCF7 breast) [µM] | TGI (BT-549 breast) [µM] | TGI (SW-620 colon) [µM] | TGI (SF-295 CNS) [µM] | TGI (HCT-15 colon) [µM] | TGI (COLO 205 colon) [µM] | TGI (OVCAR-3 ovarian) [µM]
1 | CCOC(=O)C(SCCO)C(C(=O)OCC)n1ccc(N)nc1=O (stereo not drawn) | > 100 | > 100 | > 100 | > 100 | > 100 | > 100 | > 100 | > 100 | > 100 | > 100 | > 100 | > 100
2 | O=C(ON=c1c2ccccc2ccc2ccccc12)c1cc([N+](=O)[O-])cc([N+](=O)[O-])c1 | > 100 | > 100 | > 100 | > 100 | > 100 | > 100 | > 100 | > 100 | > 100 | > 100 | > 100 | > 100
3 | COc1ccc(C2CCc3nc4nc(N)nc(N)c4cc3C2)cc1 (stereo not drawn) | 78.2 | 42 | > 100 | 31.8 | 25.3 | 28.8 | 70.6 | > 100 | 89.6 | > 100 | > 100 | 43.9
4 | C/C(CC(O)(C(F)(F)F)C(F)(F)F)=N\N | > 10 | > 10 | > 10 | > 10 | > 10 | > 10 | > 10 | > 10 | > 10 | > 10 | > 10 | > 10
5 | Oc1c(C(O)(c2ccccc2)c2ccc3ccccc3c2O)ccc2ccccc12 | 40.6 | 33.6 | 36.5 | 28.7 | 38.3 | 24 | 42.3 | 41.8 | 47.9 | 25.9 | 31.9 | 30.8
6 | O=C1C(NS(=O)(=O)c2ccccc2)=C(n2cnc3ccccc32)C(=O)c2ccccc21 | > 100 | > 100 | > 100 | > 100 | > 100 | > 100 | > 100 | > 100 | > 100 | > 100 | > 100 | > 100
7 | COc1cc(N=C(N)N=C(N)N)c2ncccc2c1 | > 100 | > 100 | 62.7 | > 100 | > 100 | > 100 | > 100 | > 100 | > 100 | > 100 | > 100 | > 100
8 | O=C(CC(=O)c1ccncc1)c1ccccc1 | > 100 | > 100 | > 100 | > 100 | > 100 | > 100 | > 100 | > 100 | > 100 | > 100 | > 100 | > 100
9 | CN1CN(c2ccccc2)C2(CCNCC2)C1=O | > 100 | > 100 | > 100 | > 100 | > 100 | > 100 | > 100 | > 100 | > 100 | > 100 | > 100 | > 100
